The values below come from patent publication US20250115669A1, “FGFR1/KLB Targeting Agonistic Antigen-Binding Proteins and Conjugates Thereof with GLP-1R Agonistic Peptides” (SANOFI, priority 2020, published 2025).

Like-named read-outs stand apart in the source and are kept apart here. Bridge positions count the residues as written; N and C are the ends. Ends that are not written are not given here. Peptide text beside a SMILES is read from it.

What all share (type): cell-based
The target in experiment [1] is T1, human GIP receptor (Homo sapiens, UniProt P48546).
T1 construct: expressed in transfected cells; host or cells: PSC-HEK-293
T1 sequence (P48546 22-466): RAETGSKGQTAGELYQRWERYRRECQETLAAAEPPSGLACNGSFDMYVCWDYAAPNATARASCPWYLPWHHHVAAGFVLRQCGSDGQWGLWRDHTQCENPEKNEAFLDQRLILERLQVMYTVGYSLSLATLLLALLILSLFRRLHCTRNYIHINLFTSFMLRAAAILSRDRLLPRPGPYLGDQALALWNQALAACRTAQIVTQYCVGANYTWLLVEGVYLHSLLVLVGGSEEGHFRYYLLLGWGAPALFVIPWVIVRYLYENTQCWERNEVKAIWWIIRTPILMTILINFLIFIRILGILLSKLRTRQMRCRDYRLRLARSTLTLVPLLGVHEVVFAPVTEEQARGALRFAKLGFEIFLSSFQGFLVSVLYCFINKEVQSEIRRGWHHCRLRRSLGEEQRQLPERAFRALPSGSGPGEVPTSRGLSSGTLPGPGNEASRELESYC
Briefly: HTRF cAMP assay in HEK-293 cells expressing human GIP receptor. As to the method: (§1) Each vial contained 1.8 ml cells. The vials were slowly frozen to −80° C. in isopropanol, and then transferred in liquid nitrogen for storage.
(§2) Cells were resuspended in assay buffer (cell buffer plus 2 mM IBMX) and adjusted to a cell density of 1 million cells/ml.
(§3) For measurement of cAMP generation, 5 μl cells (final 5000 cells/well) and 5 μl of test compound were added to a 384-well plate, followed by incubation for 30 min at room temperature.
(§4) The cAMP generated was determined using a kit from Cisbio Corp. based on HTRF (Homogenous Time Resolved Fluorescence). The cAMP assay was performed according to manufacturer's instructions (Cisbio).
(TR-FRET usually uses a lanthanide donor and a delayed reading to cut background.)

For experiment [2], the target named is T2, human GLP-1 receptor (Homo sapiens, UniProt P43220).
T2 construct: expressed in transfected cells; host or cells: PSC-HEK-293
T2 sequence (P43220 24-463): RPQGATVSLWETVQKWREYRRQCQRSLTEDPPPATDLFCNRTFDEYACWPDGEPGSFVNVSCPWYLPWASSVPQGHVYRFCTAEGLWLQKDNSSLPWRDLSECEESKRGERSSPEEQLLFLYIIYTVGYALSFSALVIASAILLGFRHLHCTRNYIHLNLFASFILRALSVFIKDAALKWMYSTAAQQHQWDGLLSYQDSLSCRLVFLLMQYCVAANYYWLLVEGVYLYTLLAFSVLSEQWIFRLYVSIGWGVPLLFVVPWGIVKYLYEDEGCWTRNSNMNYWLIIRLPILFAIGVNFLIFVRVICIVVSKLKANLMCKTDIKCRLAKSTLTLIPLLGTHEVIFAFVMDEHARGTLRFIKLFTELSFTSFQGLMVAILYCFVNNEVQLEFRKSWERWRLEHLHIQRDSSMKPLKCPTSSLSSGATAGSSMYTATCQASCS
As to the kind of experiment: HTRF cAMP assay in HEK-293 cells expressing human GLP-1 receptor. As to the method:
as §1, §2, §3, §4

Experiment [3] has as its target T3, human glucagon (GCG) receptor (Homo sapiens, UniProt P47871).
T3 construct: expressed in transfected cells; host or cells: PSC-HEK-293
As to the kind of experiment: HTRF cAMP assay in HEK-293 cells expressing human glucagon receptor. The protocol:
as §1, §2, §3, §4

Where [4] appears, read: HEK-293 cells, read-out: HTRF cAMP EC50 Human GIPR.
[5] abbreviates: HEK-293 cells, read-out: HTRF cAMP EC50 Human GLP-1R.
The mark [6] stands for this setting: HEK-293 cells, read-out: HTRF cAMP EC50 Human GCGR.

T3 sequence (P47871 26-477): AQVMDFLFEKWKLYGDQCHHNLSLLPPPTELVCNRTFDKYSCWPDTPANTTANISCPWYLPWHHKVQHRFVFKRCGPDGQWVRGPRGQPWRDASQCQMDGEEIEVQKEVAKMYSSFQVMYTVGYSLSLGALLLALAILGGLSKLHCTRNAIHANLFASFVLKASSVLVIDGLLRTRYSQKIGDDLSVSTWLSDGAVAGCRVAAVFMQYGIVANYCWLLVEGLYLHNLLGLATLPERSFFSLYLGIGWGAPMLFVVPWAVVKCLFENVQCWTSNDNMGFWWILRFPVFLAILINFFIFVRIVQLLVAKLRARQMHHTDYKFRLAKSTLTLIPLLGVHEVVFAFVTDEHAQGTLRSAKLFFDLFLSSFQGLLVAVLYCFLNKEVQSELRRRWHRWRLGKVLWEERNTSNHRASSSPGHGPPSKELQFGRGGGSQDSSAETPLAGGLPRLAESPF

The EC50 is the concentration needed to bring the measured effect to its halfway point. Turning to `CC[C@H](C)[C@H](NC(=O)[C@H](Cc1ccccc1)NC(=O)[C@H](CC(C)C)NC(=O)[C@H](CCCNC(=N)N)NC(=O)[C@@H](NC(=O)[C@H](C)NC(=O)[C@H](CCC(=O)O)NC(=O)[C@H](CCC(=O)O)NC(=O)[C@H](CCC(=O)O)NC(=O)[C@H](CC(C)C)NC(=O)[C@H](CCC(N)=O)NC(=O)[C@H](CCCCN)NC(=O)[C@H](CO)NC(=O)[C@H](CC(C)C)NC(=O)[C@H](CC(=O)O)NC(=O)[C@H](CO)NC(=O)[C@@H](NC(=O)[C@H](Cc1ccccc1)NC(=O)[C@@H](NC(=O)CNC(=O)[C@H](CCC(=O)O)NC(=O)CNC(=O)[C@H](Cc1c[nH]cn1)NC(=O)CN)[C@@H](C)O)[C@@H](C)O)C(C)C)C(=O)N[C@@H](CCC(=O)O)C(=O)N[C@@H](Cc1c[nH]c2ccccc12)C(=O)N[C@@H](CC(C)C)C(=O)N[C@@H](CCCCN)C(=O)N[C@@H](C)C(=O)NCC(=O)NCC(=O)N1CCC[C@H]1C(=O)N[C@@H](CO)C(=O)N[C@@H](CO)C(=O)NCC(=O)N[C@@H](C)C(=O)N1CCC[C@H]1C(=O)N1CCC[C@H]1C(=O)N1CCC[C@H]1C(=O)N[C@@H](CO)C(N)=O` [Ab P017] (H-GHGEGTFTSDLSKQLEEEAVRLFIEWLKAGGPSSGAPPPS-NH2), the EC50 in experiment [1] is more than 10 nM; in experiment [2] it was 0.0085 nM; in experiment [3], more than 10 nM.
Consider `CC[C@H](C)[C@H](NC(=O)[C@H](Cc1ccccc1)NC(=O)[C@H](CC(C)C)NC(=O)[C@H](CCCNC(=N)N)NC(=O)[C@H](CCC(N)=O)NC(=O)[C@H](CC(C)C)NC(=O)[C@H](CCCNC(=N)N)NC(=O)[C@H](CCCCN)NC(=O)[C@H](CCC(=O)O)NC(=O)[C@H](CC(C)C)NC(=O)[C@H](CCC(N)=O)NC(=O)[C@H](CCCCN)NC(=O)[C@H](CO)NC(=O)[C@H](CC(C)C)NC(=O)[C@H](CC(=O)O)NC(=O)[C@H](CO)NC(=O)[C@@H](NC(=O)[C@H](Cc1ccccc1)NC(=O)[C@@H](NC(=O)CNC(=O)[C@H](CCC(=O)O)NC(=O)CNC(=O)[C@@H](N)Cc1c[nH]cn1)[C@@H](C)O)[C@@H](C)O)C(=O)N[C@@H](Cc1ccc(O)cc1)C(=O)N[C@@H](Cc1c[nH]c2ccccc12)C(=O)N[C@@H](CC(C)C)C(=O)N[C@@H](CCCCN)C(=O)N[C@@H](C)C(=O)NCC(=O)NCC(=O)N[C@@H](Cc1c[nH]cn1)C(=O)N[C@@H](CO)C(=O)N[C@@H](CO)C(=O)NCC(=O)N[C@@H](CCCCN)C(=O)N1CCC[C@H]1C(=O)N1CCC[C@H]1C(=O)N1CCC[C@H]1C(=O)N[C@@H](CCCCN)C(N)=O` [Ab P026] (H-HGEGTFTSDLSKQLEKRLQRLFIYWLKAGGHSSGKPPPK-NH2; N-terminus assumed), for which the 50% effective concentration (EC50) is 2.48 nM in experiment [1] (setting [4]), 0.002 nM in experiment [2] (setting [5]) and 3.9 nM in experiment [3] (setting [6]).
The like results for `CC[C@H](C)[C@H](NC(=O)[C@H](Cc1ccccc1)NC(=O)[C@H](CC(C)C)NC(=O)[C@H](CCC(N)=O)NC(=O)[C@@H](NC(=O)[C@H](C)NC(=O)[C@H](CCC(=O)O)NC(=O)[C@H](CCC(=O)O)NC(=O)[C@H](CCC(=O)O)NC(=O)[C@H](CC(C)C)NC(=O)[C@H](CCC(N)=O)NC(=O)[C@H](CCCCN)NC(=O)[C@H](CO)NC(=O)[C@H](CC(C)C)NC(=O)[C@H](CC(=O)O)NC(=O)[C@H](CO)NC(=O)[C@@H](NC(=O)[C@H](Cc1ccccc1)NC(=O)[C@@H](NC(=O)CNC(=O)[C@H](CCC(=O)O)NC(=O)CNC(=O)[C@H](Cc1c[nH]cn1)NC(=O)CN)[C@@H](C)O)[C@@H](C)O)C(C)C)C(=O)N[C@@H](CCC(=O)O)C(=O)N[C@@H](Cc1c[nH]c2ccccc12)C(=O)N[C@@H](CC(C)C)C(=O)N[C@@H](CCCCN)C(=O)N[C@@H](C)C(=O)NCC(=O)NCC(=O)N1CCC[C@H]1C(=O)N[C@@H](CO)C(=O)N[C@@H](CO)C(=O)NCC(=O)N[C@@H](CCCCN)C(=O)N1CCC[C@H]1C(=O)N1CCC[C@H]1C(=O)N1CCC[C@H]1C(=O)N[C@@H](CCCCN)C(N)=O` [Ab P038] (H-GHGEGTFTSDLSKQLEEEAVQLFIEWLKAGGPSSGKPPPK-NH2; N-terminus assumed) were, in that order, more than 10 nM, 0.0524 nM and more than 10 nM.
Taken in the same sequence, the figures for `CC[C@H](C)[C@H](NC(=O)[C@H](Cc1ccccc1)NC(=O)[C@H](CC(C)C)NC(=O)[C@H](CCCNC(=N)N)NC(=O)[C@H](CCC(N)=O)NC(=O)[C@H](C)NC(=O)[C@H](CCC(=O)O)NC(=O)[C@H](CCC(=O)O)NC(=O)[C@H](CCC(=O)O)NC(=O)[C@H](CC(C)C)NC(=O)[C@H](CCC(N)=O)NC(=O)[C@H](CCCCN)NC(=O)[C@H](CO)NC(=O)[C@H](CC(C)C)NC(=O)[C@H](CC(=O)O)NC(=O)[C@H](CO)NC(=O)[C@@H](NC(=O)[C@H](Cc1ccccc1)NC(=O)[C@@H](NC(=O)CNC(=O)[C@H](CCC(=O)O)NC(=O)CNC(=O)[C@H](Cc1c[nH]cn1)NC(=O)CN)[C@@H](C)O)[C@@H](C)O)C(=O)N[C@@H](CCC(=O)O)C(=O)N[C@@H](Cc1c[nH]c2ccccc12)C(=O)N[C@@H](CC(C)C)C(=O)N[C@@H](CCCCN)C(=O)N[C@@H](C)C(=O)NCC(=O)NCC(=O)N1CCC[C@H]1C(=O)N[C@@H](CO)C(=O)N[C@@H](CO)C(=O)NCC(=O)N[C@@H](CCCCN)C(=O)N1CCC[C@H]1C(=O)N1CCC[C@H]1C(=O)N1CCC[C@H]1C(=O)N[C@@H](CCCCN)C(N)=O` [Ab P036] (H-GHGEGTFTSDLSKQLEEEAQRLFIEWLKAGGPSSGKPPPK-NH2; N-terminus assumed) were more than 10 nM, 0.125 nM and more than 10 nM.
Turning to `CC[C@H](C)[C@H](NC(=O)[C@H](Cc1ccccc1)NC(=O)[C@H](CC(C)C)NC(=O)[C@H](CCC(N)=O)NC(=O)[C@@H](NC(=O)[C@H](CCCNC(=N)N)NC(=O)[C@H](CCC(=O)O)NC(=O)[C@H](CCC(=O)O)NC(=O)[C@H](CCC(=O)O)NC(=O)[C@H](CC(C)C)NC(=O)[C@H](CCC(N)=O)NC(=O)[C@H](CCCCN)NC(=O)[C@H](CO)NC(=O)[C@H](CC(C)C)NC(=O)[C@H](CC(=O)O)NC(=O)[C@H](CO)NC(=O)[C@@H](NC(=O)[C@H](Cc1ccccc1)NC(=O)[C@@H](NC(=O)CNC(=O)[C@H](CCC(=O)O)NC(=O)CNC(=O)[C@@H](N)Cc1c[nH]cn1)[C@@H](C)O)[C@@H](C)O)C(C)C)C(=O)N[C@@H](CCC(=O)O)C(=O)N[C@@H](Cc1c[nH]c2ccccc12)C(=O)N[C@@H](CC(C)C)C(=O)N[C@@H](CCCCN)C(=O)N[C@@H](C)C(=O)N[C@H](C(=O)NCC(=O)N1CCC[C@H]1C(=O)N[C@@H](CO)C(=O)N[C@@H](CO)C(=O)NCC(=O)N[C@@H](C)C(=O)N1CCC[C@H]1C(=O)N1CCC[C@H]1C(=O)N1CCC[C@H]1C(=O)N[C@@H](CO)C(N)=O)[C@@H](C)O` [Ab P008] (H-HGEGTFTSDLSKQLEEERVQLFIEWLKATGPSSGAPPPS-NH2), the EC50 in experiment [1] was more than 10 nM; in experiment [2], 0.0232 nM; in experiment [3], more than 10 nM.
On to “HGEGTFTSDLSKQCEEERVQLFIEWLKATGPSSGKPPPKPGC-NH2 (disulfide 14-42) [Ab P035]”, for which the EC50 in experiment [1] (setting [4]) is more than 10 nM; in experiment [2] (setting [5]) it was 0.0203 nM; in experiment [3] (setting [6]), more than 10 nM.
For `CC[C@H](C)[C@H](NC(=O)[C@H](CC(C)C)NC(=O)[C@H](Cc1c[nH]c2ccccc12)NC(=O)[C@H](Cc1ccc(O)cc1)NC(=O)[C@@H](NC(=O)[C@H](Cc1ccccc1)NC(=O)[C@H](CC(C)C)NC(=O)[C@H](CCCNC(=N)N)NC(=O)[C@@H](NC(=O)[C@H](CC(C)C)NC(=O)[C@H](CCCNC(=N)N)NC(=O)[C@H](CCCCN)NC(=O)[C@H](CCC(=O)O)NC(=O)[C@H](CC(C)C)NC(=O)[C@H](CCC(N)=O)NC(=O)[C@H](CCCCN)NC(=O)[C@H](CO)NC(=O)[C@H](CCCCN)NC(=O)[C@H](CC(=O)O)NC(=O)[C@H](CO)NC(=O)[C@@H](NC(=O)[C@H](Cc1ccccc1)NC(=O)[C@@H](NC(=O)CNC(=O)[C@H](CCC(=O)O)NC(=O)CNC(=O)[C@@H](N)Cc1c[nH]cn1)[C@@H](C)O)[C@@H](C)O)C(C)C)[C@@H](C)CC)C(=O)N[C@@H](C)C(=O)NCC(=O)NCC(=O)N[C@@H](Cc1c[nH]cn1)C(=O)N[C@@H](CO)C(=O)N[C@@H](CO)C(=O)NCC(=O)N[C@@H](CCCCN)C(=O)N1CCC[C@H]1C(=O)N1CCC[C@H]1C(=O)N1CCC[C@H]1C(=O)N[C@@H](CCCCN)C(N)=O` [Ab P024] (H-HGEGTFTSDKSKQLEKRLVRLFIYWLIAGGHSSGKPPPK-NH2; N-terminus assumed), the EC50 was not below 10 nM in experiment [1] (setting [4]), 0.0026 nM in experiment [2] (setting [5]) and more than 10 nM in experiment [3] (setting [6]).
